Values quoted from earlier work in US6696082B2, “Enhanced liposomal thioretinaco ozonide compositions and liposomal carrier” (priority 2002, dated 2004).

Legend:
malignant tumors = settings: in vivo; cited from earlier work
[1] = rats treated with parenteral homocysteine thiolactone; cited from earlier work
[2] = test system: cultured malignant and normal cells; settings: except at high concentrations; cited from earlier work
[3] = test system: human pancreatic adenocarcinomas; settings: intra-tumor administration, athymic mice; cited from earlier work

Compound	growth of malignant tumors in animals (malignant tumors)	antiatherogenic activity [1]	growth of cultured cells [2]	growth of human pancreatic adenocarcinomas [3]
NC(=O)/C=C\C(=O)NC1CCSC1=O (centres unmarked) [N-maleamide homocysteine thiolactone amide]	suppress the growth of malignant tumors in animals	–	–	–
CC1=C(/C=C/C(C)=C/C=C/C(C)=C/C(=O)NC2CCSC2=O)C(C)(C)CCC1 (centres unmarked) [thioretinamide, N-homocysteine thiolactonyl retinamide]	–	have antiatherogenic activity	decrease growth without degeneration or detachment of the cells	–
N-homocysteine thiolactonyl retinamido cobalamin [(NHTR)2Cbl]	–	have antiatherogenic activity	decrease growth without degeneration or detachment of the cells	decreased the growth
rhodium trichloride oxalyl homocysteine thiolactone amide	suppress the growth of malignant tumors in animals	–	–	–
N-maleyl homocysteine thiolactone amide	suppress the growth of malignant tumors in animals	–	–	–
